Experimental data published in patent publication US12419309B2, “Chemical composition for seed treatment” (Yara UK Limited, priority 2019, dated 2025).

System: seeds of leguminous crops
Test: Liquid composition coated on seeds of leguminous crops, dried and sowed in soil
Format: in vivo
Details: monoethanolamine as component of the composition
Source text: The liquid composition as disclosed herein was coated on seeds of leguminous crops and the seeds were dried and sowed in soil. The germination rate was increased as well as the number of nodules, the mass of roots and the amount of dry matter in the shoots.

## NCCO [Monoethanolamine]
  Effect on the growth of nodules: no detrimental effect
